Values after ≈ are worked out from the molar mass of the structure shown.
Experiments:
HepG2 = test: Cytotoxicity against human HepG2 cells incubated for 48 hrs by MTT based colorimetry assay; type: functional, cell-based; details: HepG2, 48 h
CCRF S-180 = test: Cytotoxicity against mouse CCRF S-180 cells incubated for 48 hrs by MTT based colorimetry assay; type: functional, cell-based; details: CCRF S-180, 48 h
MGC-803 = test: Cytotoxicity against human MGC-803 cells incubated for 48 hrs by MTT based colorimetry assay; type: functional, cell-based; details: MGC-803, 48 h
HL-60 [1] = test: Cytotoxicity against human HL-60 cells assessed as inhibition of cell growth; type: functional, cell-based
HL-60 [2] = test: Cytotoxicity against human HL-60 cells; type: functional, cell-based
RAW264.7 [3] = test: Anti-inflammatory activity in LPS induced mouse RAW264.7 cells assessed as inhibition of NO production pretreated for 1 hr followed by LPS stimulation and measured after 18 hrs by MTT assay; type: functional; details: time 19 hrs, read-out: ED50 (the source's name)
RAW264.7 [4] = test: Anti-inflammatory activity in LPS induced mouse RAW264.7 cells assessed as inhibition of NO production; type: functional, cell-based
A549 = test: Cytotoxicity against human A549 cells incubated for 72 hrs by CCK8 assay; type: functional, cell-based; details: A549, 72 h
HL-60 [5] = test: Cytotoxicity against human HL-60 cells incubated for 72 hrs by CCK8 assay; type: functional, cell-based; details: HL-60, 72 h
HT-29 = test: Cytotoxicity against human HT-29 cells incubated for 72 hrs by CCK8 assay; type: functional, cell-based; details: HT-29, 72 h
Bel-7402 = test: Cytotoxicity against human Bel-7402 cells incubated for 72 hrs by CCK8 assay; type: functional, cell-based; details: Bel-7402, 72 h
RAW264.7 [6] = test: Anti-inflammatory activity in LPS induced mouse RAW264.7 cells assessed as inhibition of NO production by MTT method; type: functional, cell-based
KB = test: Cytotoxicity against human KB cells assessed as reduction in cell viability; type: functional, cell-based
U2OS = test: Synergistic cytotoxicity in human U2OS cells assessed as combination index in presence of doxorubicin; type: functional
[7] = Cytotoxicity against human 6T-CEM cells; type: functional, cell-based
PC-12 = test: Neuroprotective activity against glutamate-induced neurotoxicity in rat PC-12 cells; type: functional, cell-based
CCRF-CEM = test: Cytotoxicity against human CCRF-CEM cells; type: functional, cell-based

## CC(=O)C1=C(Oc2oc3cc4c(c(C)c3c2C)[C@@H](C)CCC4)C[C@H]2CCC[C@H](C)[C@@]2(C)C1
HepG2
  IC50: 11.9 µM
CCRF S-180
  IC50: 11.9 µM
MGC-803
  IC50: 11.9 µM

## C[C@H](O)CC[C@H]1[C@@H]2C[C@H]3[C@@H](C[C@]12C)OC(=O)C31CC2(CO1)C(=O)O[C@@H]1C[C@]3(C)[C@@H](CC[C@@H](C)O)[C@@H]3C[C@@H]12 (some centres undefined)
HL-60 [1]
  IC50: 8.7 µM

## C=C1C(=O)O[C@H]2C[C@H](C)C3=C(C[C@H]12)[C@]1(C)C[C@H]3C[C@@]12C(=O)O[C@@H]1C[C@H](C)C(CC[C@H](C)O)=CC[C@@H]12
HL-60 [2]
  IC50: 4.9 µM

## C[C@@H]1CC(=O)c2c3c(nc4c2[C@@]1(C)[C@H]1[C@@H](C4=O)C1(C)C)C[C@]1(C)C(=CCC[C@H]1C)C3=O
RAW264.7 [3]
  EC50: 5.73 µM

## C=C1C(=O)O[C@@H]2[C@@H]3[C@@H](C[C@@]4(O)[C@]3(O)CC[C@]43C(=O)C[C@H]4C(=C)CC[C@H]5C(=C)C(=O)O[C@@H]5[C@H]43)C(=C)CC[C@@H]12
RAW264.7 [4]
  IC50: 2.41 µg/mL (≈ 4.76 µM)

## C=C1CC[C@H]2C(=C)C(=O)O[C@@H]2[C@@H]2[C@H]1[C@@H](C[C@@H]1C(=O)C3C4[C@H]1[C@H]1OC(=O)C(=C)[C@@H]1CC[C@]4(O)CC[C@]31C(=O)C[C@H]3C(=C)CC[C@H]4C(=C)C(=O)O[C@@H]4[C@H]31)C(=O)[C@@]2(O)CC[C@@H]1C(=O)C[C@H]2C(=C)CC[C@H]3C(=C)C(=O)O[C@@H]3[C@@H]12 (some centres undefined)
A549
  IC50: 2 µM
HL-60 [5]
  IC50: 2 µM
HT-29
  IC50: 2 µM
Bel-7402
  IC50: 2 µM

## C=C1CC[C@H]2C(=C)CC[C@@H]3[C@H](OC(=O)[C@H]3C[C@@]3(CC(C)=O)C(=O)O[C@@H]4[C@H]5C(C)=CCCC5(C)CC[C@H]43)[C@@H]12 (some centres undefined)
RAW264.7 [6]
  IC50: 7.24 µM

## C=C1CCC[C@]2(C)CC[C@@H](C(C)C)[C@H](NC(=O)[C@H]3C[C@H](O)C[C@@H](C(=O)N[C@H]4[C@H](C(C)C)CC[C@@]5(C)CCCC(=C)[C@]45C)N3CCC(=O)OC)[C@@H]12
KB
  IC50: 10.6 µg/mL (≈ 15.2 µM)

## C=C1CC[C@H]2C(=C)CC[C@@H]3[C@H](OC(=O)[C@]3(CC(C)O)C[C@@H]3C(=O)O[C@H]4[C@H]3CCC(=C)[C@@H]3CCC(=C)[C@@]34C)[C@@H]12 (some centres undefined)
RAW264.7 [6]
  IC50: 2.46 µM

## C=C(C)[C@@H]1c2oc3c(c2C(=O)C2=CCC[C@@H](C)[C@@]21C)C(=O)C[C@]1(C)C3=CCC[C@H]1C
RAW264.7 [3]
  EC50: 23.6 µM

## COC(=O)/C(C)=C1\C(=O)[C@H](O)[C@@]2(C)[C@@H]3C[C@@H]3C3=C[C@@]4(C)[C@@]5(C)[C@@H]6C[C@@H]6[C@@]6(O)COC(=O)/C(C)=C/COC(=O)C(O)CC(=O)OCC7=C(C[C@@H]65)[C@@]4(OC7=O)[C@@H]1[C@]32OO (some centres undefined)
HL-60 [2]
  IC50: 0.03 µM

## CC(=O)C1=C(Oc2oc3c(c2C)C[C@@]2(C)[C@H](CCC[C@@H]2C)[C@@H]3O)C[C@H]2CCC[C@H](C)[C@@]2(C)C1
HepG2
  IC50: 11.9 µM
CCRF S-180
  IC50: 11.9 µM
MGC-803
  IC50: 11.9 µM

## COC(=O)/C(C)=C1\C(=O)[C@H](O)[C@@]2(C)[C@@H]3C[C@@H]3[C@@]34CCC5=C6C3=C(C(=O)[C@H](O)[C@@]6(C)[C@@H]3C[C@H]53)[C@](C)(C(C)=O)[C@@H]1[C@@]24O
U2OS
  CI: 1.12

## C=C1C(=O)O[C@H]2C[C@H](C)C3=C(C[C@H]12)[C@@]1(C)OC(=O)[C@@H](c2ccc(C)c([C@H](C)CCCOC(C)=O)c2)C[C@H]1[C@H]3OC(C)=O
[7]
  IC50: 4.4 µM

## C=C1CC[C@H]2C(=C)CC[C@@H]3[C@H](OC(=O)[C@]3(CC(C)=O)C[C@@H]3CC[C@H]4C(=C)CC[C@H]5C(=C)C(=O)O[C@@H]5[C@@H]34)[C@@H]12
PC-12
  EC50: 2.11 µM

## C=C1C(=O)O[C@H]2C[C@H](C)[C@@]34C[C@@H](C[C@@]35C(=O)O[C@H]3CC(=C)[C@H]6CC[C@@](C)(O)[C@@H]6C[C@@H]35)C(C)=C4C[C@H]12
CCRF-CEM
  IC50: 2.03 µM

## C=C1C(=O)O[C@H]2C[C@H](C)C3=C(C[C@H]12)[C@]1(C)C[C@H]3C[C@@]12C(=O)O[C@@H]1C[C@H](C)C(CCC(C)=O)=CC[C@@H]12
HL-60 [2]
  IC50: 7.5 µM
